Here are results for six molecules from patent US11560391B2, “Sulfonylurea compounds as inhibitors of interleukin-1 activity” (Genentech, Inc., priority 2018, dated 2023).

Molecules are shown by their SMILES. Where two headings read alike, the source gives them in different places. Bounds are passed on as bounds.

One assay relates to THP-1 ASC-GFP cells. Nature of the assay: THP-1 ASC-GFP speck assay (NLRP3 inflammasome activation, nigericin). The format is cell-based. The following applies: THP1-ASC-GFP; PMA-differentiated, LPS primed, 10 μM nigericin. In a few lines:
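PMA-differentiated (500 ng/ml, overnight) THP-1 ASC-GFP cells primed with LPS 1 μg/mL for 3 h, pre-treated 30 min with compound (20-point, 2-fold from 40 μM), then nigericin 10 μM for 90 min. After fixation, imaging gives % cells with ASC-GFP specks against Hoechst-counted nuclei.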

Another assay relates to PBMCs. Nature of the assay: CTG (CellTiter-Glo) viability assay of compound-treated LPS and nigericin stimulated PBMCs. The format is cell-based, human. The note with it: Homo sapiens, PBMC. In a few lines:
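Human PBMCs primed with 100 ng/mL LPS for 3 h, pre-incubated 30 min with compound (0.00017–10 uM) in FBS-free medium, then stimulated with 10 μM nigericin for 1.5 h. Viability read by CellTiter-Glo ATP luminescence as a cytotoxicity counter-screen.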
A general note: ATP-based viability assays read luminescence as a measure of living cells.

In another assay the target is T1, NLRP3 inflammasome (Homo sapiens, UniProt Q96P20).
T1 construct: freshly isolated from human peripheral blood from healthy donors; StemCells Technologies; host or cells: primary human PBMCs
T1 sequence (Q96P20 whole entry): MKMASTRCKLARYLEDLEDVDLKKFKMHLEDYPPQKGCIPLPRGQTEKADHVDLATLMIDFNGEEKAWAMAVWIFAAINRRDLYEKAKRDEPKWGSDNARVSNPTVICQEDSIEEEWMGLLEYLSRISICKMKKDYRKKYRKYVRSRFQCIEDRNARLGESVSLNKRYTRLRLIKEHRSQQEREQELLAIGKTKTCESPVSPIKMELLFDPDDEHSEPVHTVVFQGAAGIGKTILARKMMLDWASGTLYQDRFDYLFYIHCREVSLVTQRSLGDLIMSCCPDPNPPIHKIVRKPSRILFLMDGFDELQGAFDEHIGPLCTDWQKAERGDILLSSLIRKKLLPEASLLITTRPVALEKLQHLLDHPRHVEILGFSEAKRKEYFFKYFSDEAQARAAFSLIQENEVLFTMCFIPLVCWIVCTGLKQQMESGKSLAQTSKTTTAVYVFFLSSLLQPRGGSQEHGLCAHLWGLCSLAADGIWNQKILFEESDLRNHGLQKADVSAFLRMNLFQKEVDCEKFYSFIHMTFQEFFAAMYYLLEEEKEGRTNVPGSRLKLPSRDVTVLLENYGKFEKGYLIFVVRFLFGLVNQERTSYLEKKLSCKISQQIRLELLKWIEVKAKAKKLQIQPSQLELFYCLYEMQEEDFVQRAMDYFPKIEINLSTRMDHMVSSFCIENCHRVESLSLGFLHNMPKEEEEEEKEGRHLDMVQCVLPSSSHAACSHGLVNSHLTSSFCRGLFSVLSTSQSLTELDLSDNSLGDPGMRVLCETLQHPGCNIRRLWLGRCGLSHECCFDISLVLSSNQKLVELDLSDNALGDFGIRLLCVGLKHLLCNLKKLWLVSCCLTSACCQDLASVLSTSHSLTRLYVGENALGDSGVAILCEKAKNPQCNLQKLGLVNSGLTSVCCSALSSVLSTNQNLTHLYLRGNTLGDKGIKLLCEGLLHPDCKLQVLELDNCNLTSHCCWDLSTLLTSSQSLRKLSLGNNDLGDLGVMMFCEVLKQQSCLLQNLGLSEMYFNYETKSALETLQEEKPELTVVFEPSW
As to the kind of experiment: NLRP3 inflammasome activation assay in LPS-primed, nigericin-stimulated PBMCs, IL-1β release. The format is cell-based. The following applies: 10 μM nigericin. In a few lines: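 Fresh or cryopreserved human PBMCs primed with 100 ng/mL LPS for 3 h, pre-incubated 30 min with compound (0.00017-10 uM, or 2-fold 20-point series from 40 μM), then stimulated with 10 μM nigericin for 1.5 h at 37 °C. Supernatant IL-1β measured by ELISA or by HTRF (665/620 ratio).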

The test system of another assay is TNFα. As to the kind of experiment: TNFα levels of LPS and nigericin stimulated PBMCs (counter-screen). The format is cell-based. The note with it: Homo sapiens, PBMC. Here is the method: Human peripheral blood mononuclear cells (PBMCs), consisting of lymphocytes (T, B and NK cells), monocytes and dendritic cells, are freshly isolated from human peripheral blood from healthy donors. Cells are obtained through an IRB approved donor program by iXCells Biotechnologies where all the donors are tested for bacterial and viral infections. Cells are purified from peripheral blood using ficoll gradient centrifugation.
Fresh or cryopreserved PMBCs are seeded in V-bottom 96-well plate at 0.5-1×10^5 cells per well and incubated overnight at 37° C. with 5% CO2 in RPMI 1640 medium with GlutaMAX supplement, 4.5 g/L D-glucose, 10% Fetal Bovine Serum (FBS), […] Sodium Pyruvate, 1% Penicillin/Streptomycin, 10 mM HEPES and 0.05 mM of […]. Freshly isolated or cryopreserved KCs cells are seeded in flat-bottom 96-well plates at 0.6-1.5×10^5 cells/well and incubated overnight at 37° C., 5% CO2 in RPMI 1640 Medium with GlutaMAX supplement, FBS, 1% Penicillin/Streptomycin and 10 mM HEPES. The following day, the cells are primed with 100 ng/mL of lipopolysaccharides (LPS; Sigma Aldrich) in FBS-free RPMI 1640 for 3 h. After the priming step, the media is removed and PBMCs are pre-incubated with serial concentrations of test compounds (0.00017-10 uM) or vehicle (DMSO) for 30 min in FBS-free media prior to addition of the NLRP3 activator. Cells are then stimulated with 10 μM Nigericin (Sigma Aldrich; InvivoGen) for 1.5 h. Plates were centrifuged at 1,500 rpm for 3 minutes to pellet cells and supernatant was transferred into new plates for subsequent experiments.
For ELISA assays cells are seeded into 96-well plates. Post study, supernatants are removed and the levels of mature IL-1β, IL18 and TNFα (Quantikine ELISA, R&D systems) are measured in cell conditioned media by ELISA according to manufacturer's instructions.
TNFα levels of LPS and nigericin stimulated cells are measured by HTRF assay (Cisbio, Bedford, Mass.). […] Measuring TNFalpha production also serves as a technical counter-screen to eliminate compounds that interfere with the HTRF reagents. Thus compounds that inhibit both IL-1β and TNFα levels are triaged for either being non-selective for inflammasome or interfering with the HTRF readout.

Setting [1] is: PBMC, LPS priming, read-out: PMBC IL-1β IC50.

For `COc1cc(C(C)C)c(NC(=O)NS(=O)(=O)c2cnn3c2OCC(C)(C)C3)c(C(C)C)n1` [Example 47, N-((2,4-diisopropyl-6-methoxypyridin-3-yl)carbamoyl)-6,6-dimethyl-6,7-dihydro-5H-pyrazolo[5,1-b][1,3]oxazine-3-sulfonamide], the IC50 is 8300 nM in the assay on THP-1 ASC-GFP cells, 1160 nM in the assay on PBMCs (read-out: PMBC CTG IC50), 2010 nM on NLRP3 inflammasome (setting [1]) and over 10000 nM in the assay with TNFα (read-out: PMBC TNFα IC50).
Turning to `Cc1cc(C(C)C)c(NC(=O)NS(=O)(=O)c2cnn3c2OCCC3)c(C(C)C)n1` [Example 48, N-((2,4-diisopropyl-6-methylpyridin-3-yl)carbamoyl)-6,7-dihydro-5H-pyrazolo[5,1-b][1,3]oxazine-3-sulfonamide], the IC50 is 2000 nM in the assay with THP-1 ASC-GFP cells, 2430 nM in the assay with PBMCs (read-out: PMBC CTG IC50), 2470 nM at NLRP3 inflammasome (setting [1]) and over 10000 nM in the assay with TNFα (read-out: PMBC TNFα IC50).
Consider `COc1cc(C(C)C)c(NC(=O)NS(=O)(=O)c2cnn3c2OCC(C)(C)C3)c(C(C)C)n1` [drawing 414], for which the IC50 is 1000 to 10000 nM in the assay with PBMCs (LPS and nigericin stimulated cells, read-out: CTG pIC50 (converted)); 1000 to 10000 nM at NLRP3 inflammasome (LPS 100 ng/mL priming, read-out: IL-1B pIC50 (converted)); over 10000 nM in the assay on TNFα (LPS and nigericin stimulated cells, read-out: TNFa pIC50 (converted)).
Regarding `COc1cc(C(C)C)c(NC(=O)NS(=O)(=O)c2cnn3c2OC[C@@H](N(C)C)C3)c(C(C)C)n1` [Example 52a, (S)—N-((2,4-diisopropyl-6-methoxypyridin-3-yl)carbamoyl)-6-(dimethylamino)-6,7-dihydro-5H-pyrazolo[5,1-b][1,3]oxazine-3-sulfonamide], the IC50 in the assay on THP-1 ASC-GFP cells is 500 nM; in the assay with PBMCs (read-out: PMBC CTG IC50), 390 nM; at NLRP3 inflammasome (setting [1]) it was 790 nM; with TNFα (read-out: PMBC TNFα IC50), over 10000 nM.
The like results for `CC(C)c1cc(C(F)(F)F)nc(C(C)C)c1NC(=O)NS(=O)(=O)c1cnn2c1OCCC2` [Example 54, N-((2,4-diisopropyl-6-(trifluoromethyl)pyridin-3-yl)carbamoyl)-6,7-dihydro-5H-pyrazolo[5,1-b][1,3]oxazine-3-sulfonamide] were, in that order, 620 nM, 16 nM, 320 nM and over 10000 nM.
As to `CNc1cc(C(C)C)c(NC(=O)NS(=O)(=O)c2cnn3c2OCCC3)c(C(C)C)n1` [Example 53, N-((2,4-diisopropyl-6-(methylamino)pyridin-3-yl)carbamoyl)-6,7-dihydro-5H-pyrazolo[5,1-b][1,3]oxazine-3-sulfonamide], the IC50 with THP-1 ASC-GFP cells is 3300 nM; in the assay on PBMCs (read-out: PMBC CTG IC50), 880 nM; at NLRP3 inflammasome (setting [1]), 3400 nM; in the assay on TNFα (read-out: PMBC TNFα IC50), over 10000 nM.
